pIC50: −log10 of the molar value. Entries after “also recorded” stand apart in the source; their conditions may differ.
Assays:
[1] = target: T1, inositol monophosphatase (IMPase) (Bos taurus, UniProt P20456); assay: Inhibition of inositol monophosphatase (IMPase) enzyme activity, liberated phosphate by molybdate coloration; format: biochemical, animal; conditions: 4 mM 2-glycerolphosphate, 5 μg/ml IMPase, 50 mM Tris-HCl pH 7.5, 2 mM magnesium chloride, 0.1 mM EGTA, 30 minutes; read-out: IC50 (molar amount of inhibitor required to inhibit the enzyme activity by 50%)
T1 sequence (P20456 1-277): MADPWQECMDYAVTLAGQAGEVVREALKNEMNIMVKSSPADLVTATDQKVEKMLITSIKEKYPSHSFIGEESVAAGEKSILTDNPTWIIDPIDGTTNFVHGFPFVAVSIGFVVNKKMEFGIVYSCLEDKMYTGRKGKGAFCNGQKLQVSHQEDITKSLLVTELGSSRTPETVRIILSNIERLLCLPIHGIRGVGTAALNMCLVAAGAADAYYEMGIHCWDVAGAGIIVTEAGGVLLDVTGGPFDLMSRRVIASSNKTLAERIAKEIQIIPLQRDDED
Description: For determining the activity of the compounds of formula I, IMPase with a purity higher than 90% as judged by SDS-PAGE (sodium dodecyl sulphate polyacrylamide gel electrophoresis) is purified as described in P. D. Pelton and A. J. Ganzhorn, Journal Biolog. Chem., 267, 1992, pp. 5916-5920. The enzyme can be purified from animal brain or from recombinant E. coli strains expressing animal IMPase. Although crude enzyme preparations can also be used, it is preferable to use purified enzyme. The purified enzyme routinely has a specific activity of 25 μmol of Pi/min/mg of protein as determined in a standard assay (P. V. Attwood et al., Biochem. Jour., 1988, 253, pp. 387-394) with 4 mM 2-glycerolphosphate as substrate.
The enzyme activity may be determined according to A. J. Ganzhorn and M. C. Chanal, Biochem., 1990, 29; the reaction mixture contains 50 mM Tris-HCl, pH 7.5, 2 mM magnesium chloride and 0.1 mM EGTA. Then, 5 μg/ml of enzyme IMPase and 4 mM of 2-glycerolphosphate substrate are added to the reaction mixture; alternatively, it is also possible to add the substrate directly into the reaction mixture, before adding the enzyme.
The reaction is considered terminated after 30 minutes from the addition of the substrate or the enzyme (depending on which one is added later); the liberated phosphate is determined by molybdate coloration (P. V. Attwood et al., Biochem. Jour., 1988, 253, pp. 387-394) at 350 nm with a Shimadzu spectrophotometer UV 2100.
The enzyme reaction is performed either in the absence or in the presence of various concentrations of the compounds of formula I, to determine the molar amount of inhibitor required to inhibit the enzyme activity by 50% (IC50).

[2] = cited from earlier work
[3] = test system: bipolar disorder / mania; conditions: cited from earlier work
[4] = test system: inositol monophosphatase; conditions: cited from earlier work

Compound | pIC50 [1] | structural lesions in kidney ([2]; after chronic lithium treatment, especially in patients who have experienced lithium toxicity) | adverse effects common to lithium therapy ([2]; lithium therapy) | occurrence of polyuria-polydipsia syndrome ([2]; lithium treatment) | time it takes to exert anti-manic effect ([3]; acute bipolar disorder) [days] | anti-manic and anti-depressive therapeutic effect ([3]; preferably employed as lithium carbonate) | inhibition of inositol monophosphatase activity [4]
O=C1OC(=O)c2c1cc(O)c(O)c(O)c2=O [puberulonic acid, 3,4,6-trihydroxy-5-oxo-1,3,6-cycloheptatriene-1,7-dicarboxylic acid anhydride] | ~5.40 | – | – | – | – | – | –
lithium | ~2.90 | interstitial fibrosis, tubular atrophy and glomerular sclerosis | tremor, weight gain, diarrhea and skin rash; also recorded: transient leukocytosis; also recorded: can cause patients with a borderline thyroid reserve to become clinically hypothyroid; also recorded: can decompensate cardiac status due to shifts in fluids and electrolytes | up to 60 % of treated patients | 7 to 10 | alleviating manic symptoms, normalizing the mood of manic patients | inhibits the activity of said enzyme
O=C(O)c1cc(O)c(O)c(=O)c(O)c1 [puberulic acid, 3,4,6-trihydroxy-5-oxo-1,3,6-cycloheptatriene-1-carboxylic acid] | ~4.40 | – | – | – | – | – | –

Source: US5990160A, “Use of tropolone derivatives as inhibitors of the enzyme inositol monophosphatase” (Gruppo Lepetit, SpA, priority 1995, dated 1999)
